What was measured:
Assay type in all cases: cell-based
[1] = tested on: Candida parapsilosis DCS 1090; experiment: Minimal Inhibition Concentration Assay (MIC), 96 well liquid based; settings: Lodderomyces parapsilosis, DCS1090; in blend FP1000S; read-out: actual presence of the individual compound in the blend at MIC level
From the text: (§1) The target strains used for assessment of antimicrobial activity are isolates of different origin e.g. food spoilage isolates, spoilage organisms provided by a customer, national strain collections (e.g. DSMZ, ATCC) collected in the in house Danisco Culture Collection (DCS) (Danisco, Brabrand, Denmark), maintained at −86′C in suitable broth containing glycerol 50% (v/v). The strains were chosen to represent Gram negative and fungal strains. All species used were aerobic. Before each experiment, stock cultures were propagated through two consecutive growth cycles in suitable media and temperature. The overnight cultures are diluted in saline solution to obtain working cultures.
(§2) Yeast and mould strains were incubated at 25° C., and bacterial isolates were grown at 30° C. under aerobic conditions depending on the preferred conditions for the particular strain (Method no AP-002).
(§3) The Minimal Inhibition Concentration Assay (MIC) is a 96 well liquid based assay developed for an automated assessment system and performed essentially as described in (Method no AP-003). Indicator strains (table 2) are tested for inhibition of growth by the putative anti-microbial substances and combinations thereof, using a wide concentration range (depending on the compound), in this case by performing a ⅔-dilution series of each sample at pH 6.0 (±0.2)). From a 10 fold diluted overnight culture 5 μl of each strain was inoculated in one well corresponding to an approximate inoculation density of 10^3-10^4 cells/well. Media used were YM-broth for yeast and moulds and CASO-broth for bacterial isolates. Strains were incubated at 24° C. or 30° C. for 24 to 48 hours depending on the strain. The increase in optical density (O.D.) after incubation is compared to a growth control to estimate whether the substance has a bacteriostatic effect and to determine the MIC. MIC is defined as the lowest concentration of the antimicrobial that will inhibit measurable growth. A bacteriostatic effect is defined as the OD620 being less than or equal to 20% of the growth control after incubation.
(§4) To obtain more accurate estimates of the values, an Excel macro was used to process the raw data. The macro scans the raw data and finds the two concentrations that lie on either side of the O.D. 20% threshold value. It then pinpoints the actual concentration where the O.D. crosses the threshold, using linear correlation. All data are presented as the mean values of duplicates for each microorganism.
(§5) The MIC assays were run on a fully automated assessment system consisting of a 9-hotel Cytohotel (Thermo), a Biomek FxP pipetting robot (Beckman Coulter), an ORCA robotic arm on a 3 meter rails (Beckman Coulter), 2 Synergy HT spectrophotometers (Biotek), a Cytomat 6001 incubator (Thermo) and a Cytomat 2C incubator (Thermo).

[2] = tested on: Candida tropicalis DCS 604; experiment: as above; settings: DCS604, in blend FP1000S, read-out: actual presence of the individual compound in the blend at MIC level
From the text: as §1, §2, §3, §4, §5

[3] = tested on: Debaryomyces hansenii DCS 605; experiment: as above; settings: DCS605, in blend FP1000S, read-out: actual presence of the individual compound in the blend at MIC level
From the text: as §1, §2, §3, §4, §5

[4] = tested on: Escherichia coli DCS 495; experiment: as above; settings: DCS495, read-out: actual presence of the individual compound in the blend at MIC level
From the text: as §1, §2, §3, §4, §5

[5] = tested on: Pichia anomala DCS 603; experiment: as above; settings: Hansenula anomala, DCS603; in blend FP1000S; read-out: actual presence of the individual compound in the blend at MIC level
From the text: as §1, §2, §3, §4, §5

[6] = tested on: Pseudomonas fluorescens DCS 428; experiment: as above; settings: DCS428, in blend FP1000S, read-out: actual presence of the individual compound in the blend at MIC level
From the text: as §1, §2, §3, §4, §5

[7] = tested on: Rhodotorula glutinis DCS 606; experiment: as above; settings: DCS606, in blend FP1000S, read-out: actual presence of the individual compound in the blend at MIC level
From the text: as §1, §2, §3, §4, §5

[8] = tested on: Saccharomyces cerevisiae DCS 599; experiment: as above; settings: DCS599, in blend FP1000S, read-out: actual presence of the individual compound in the blend at MIC level
From the text: as §1, §2, §3, §4, §5

[9] = tested on: Salmonella enteritidis DCS 1152; experiment: as above; settings: Salmonella enterica, in blend FP1000S, read-out: actual presence of the individual compound in the blend at MIC level
From the text: as §1, §2, §3, §4, §5

[10] = tested on: Aspergillus niger DCS 1115; experiment: as above; settings: DCS1115, in blend FP1000S, read-out: actual presence of the individual compound in the blend at MIC level
From the text: as §1
(§6) Mould spore inoculums were prepared as follows: approx. 2 ml of sterile demineralised water was used to wash the spores off an out-grown mould (minimum 5 day old plate). This suspension is transferred to a sterile container.
as §2
as §3, with “MIC is defined as the lowest concentration of the antimicrobial that will inhibit measurable growth. A bacteriostatic effect is defined as the OD620 being less than or equal to 20% of the growth control after incubation.” left out

[11] = tested on: Aspergillus parasiticus DCS 709; experiment: as above; settings: DCS709, in blend FP1000S, read-out: actual presence of the individual compound in the blend at MIC level
From the text: as §1, §6, §2
as §3, with “MIC is defined as the lowest concentration of the antimicrobial that will inhibit measurable growth. A bacteriostatic effect is defined as the OD620 being less than or equal to 20% of the growth control after incubation.” left out

[12] = tested on: Aspergillus versicolor DCS 1069; experiment: as above; settings: DCS1069, in blend FP1000S, read-out: actual presence of the individual compound in the blend at MIC level
From the text: as §1, §6, §2
as §3, with “MIC is defined as the lowest concentration of the antimicrobial that will inhibit measurable growth. A bacteriostatic effect is defined as the OD620 being less than or equal to 20% of the growth control after incubation.” left out

[13] = tested on: Saccharomyces servazzii; experiment: In vitro susceptibility of contaminant yeast by minimal inhibition concentrations; settings: MicroGARD 200 at 1% (w/v); allyl isothiocyanate 0.01%; FP 1000-D1 at 1% (w/v)
Procedure: The dominating yeast in the control batch was traced back to Pichia spp., likely to be the added DCS 1175 strain. At what time point the contaminant yeast occurred is not known. The contaminant yeast. Saccharomyces servazzii, was tested in vitro for susceptibility towards MicroGARD® 200, allyl isothiocyanate, and the FP1000 variant FP 1000-D1 by determination of minimal inhibition concentrations (data not shown) The results confirmed a tolerance of the yeast against MicroGARD® 200 at 1% (w/v) and susceptibility towards allyl isothiocyanate 0.01% and FP 1000-D1 at 1% (w/v), respectively. Consequently, although eventually present in all batches, Saccharomyces servazzii could have been suppressed in the preserved batches, but was able to outgrow in batch D. The high acetic acid concentration in the unpreserved batch A and the competing yeast flora could have caused suppression of the contaminant in those samples.

`C=CCN=C=S` [AITC, allyl isothiocyanate] showed an MIC [1] of 67 µg/mL, an MIC [2] of 235 µg/mL and an MIC [3] of 213 µg/mL. The MIC [4] was greater than 700 µg/mL, the MIC [5] was 380 µg/mL and the MIC [6] was 412 µg/mL. For the same molecule, the MIC [7] was 200 µg/mL, the MIC [8] was 196 µg/mL and the MIC [9] was greater than 700 µg/mL. The MIC [10] was 106 µg/mL, the MIC [11] was 38 µg/mL and the MIC [12] was 143 µg/mL. The “in vitro susceptibility of contaminant yeast (data not shown)” value [13] was “susceptibility”.

From patent US20130287918A1, “MICROBICIDAL COMPOSITION” (DUPONT NUTRITION DIOSCIENCES APS, priority 2010, published 2013)
